Results: publication PMC3351391, “Inhibition Mechanism and Model of an Angiotensin I-Converting Enzyme (ACE)-Inhibitory Hexapeptide from Yeast (Saccharomyces cerevisiae)” (PLoS ONE, 2012)
Entries after “also recorded” stand apart in the source; their conditions may differ. No end group written: not given here.

Columns and labels:
ACE [1] = settings: cited from earlier work; for mode of ACE inhibition (literature): compete with the substrate for binding to the active site
Description: In this study, we investigated the inhibition mechanism of the hexapeptide on the basis of its sequence to provide a reference for the design of drugs that target such enzymes as ACE. || To determine the inhibitory mechanism, Lineweaver-Burk plots were determined for the ACE-inhibitory peptide from yeast (TPTQQS). […] Thus, the peptide can combine with the ACE molecule to produce a dead-end complex, regardless of whether a substrate molecule is bound or not. The complex between ACE and TPTQQS can prevent the formation of the reaction product, HA. […] However, the amino acid sequence of this peptide is not in accordance with the results of structure-activity correlation studies on ACE-inhibitory peptides. […] In the present study, we demonstr ...

ACE [2] = assay: Assay of ACE-inhibitory activity (HPLC, hippuric acid from HHL); type: biochemical; settings: peptide 0.25 mmol/L (Fig. 4); HHL substrate, 0.1 mol/L Na-borate buffer pH 8.3; 5 min pre-incubation, 1 h at 37°C; RP-HPLC of HA at 228 nm
Description: (§1) The determination of ACE-inhibitory activity was performed using a High Performance Liquid Chromatography (HPLC) method, modified from a spectrophotometric method. HHL (Sigma, USA) was dissolved in 0.1 mol/L Na-borate buffer (pH 8.3) containing 1.55 mmol/L NaCl. ACE (Sigma, USA) was dissolved in the same buffer at a concentration of 0.2 U/mL. A mixture containing 10 µL of inhibitor and 5 µL of ACE solution was incubated at 37°C for 5 min, 50 µL of HHL solution was added, and the solution was incubated for 1 h. The reaction was stopped by adding 100 µL of 0.1% trifluoroacetic acid (TFA) (Sigma, USA). The amount of hippuric acid (HA) yielded by ACE catalysis was measured by RP-HPLC (GX-281, Gilson, France) with an octadecylsilyl (ODS) column (4.6 mm×250 mm, 5 µm, Agilent, USA). The mobile phase was 60% methanol (V/V) containing 0.1% TFA at a flow rate of 0.8 mL/min. The effluent was monitored at 228 nm. The ACE-inhibitory activity was calculated using Equation (1) as follows: [drawing 1] (1) where A is the content of HA generated in the presence of an ACE inhibitor, B is the content of HA generated without an ACE inhibitor, and C is the content of HA generated without ACE.

ACE [3] = assay: Inhibition kinetics of ACE (Lineweaver-Burk plots, HHL substrate); type: biochemical; settings: 100 and 200 µg/mL inhibitor; HHL 0.78, 1.55, 3.10 mM; Na-borate pH 8.3; 37°C
Description: as §1, with “The mobile phase was 60% methanol (V/V) containing 0.1% TFA at a flow rate of 0.8 mL/min.” left out, “(1) where A is the content of HA generated in the presence of an ACE inhibitor, B is the content of HA generated without an ACE inhibitor, and C is the content of HA generated without ACE.” left out
Inhibition kinetics of TPTQQS- Various substrate (HHL) concentrations (0.78 mM, 1.55 mM, and 3.10 mM) were incubated with the ACE solution in the presence or absence of 100 µg/mL, of 200 µg/mL TPTQQS at 37°C. The ACE-inhibitory activity was determined as described as described in the “Assay of ACE-inhibitory activity". The kinetics of ACE in the presence of the inhibitory peptide was determined using Lineweaver-Burk plots.

ACE [4] = target: T1, ACE (Oryctolagus cuniculus, UniProt P12822); assay: ITC titration of HHL into ACE in presence of inhibitor; type: binding; settings: 0.024 µmol/L ACE and 0.13 µmol/L TPTQQS titrated with 1.55 mmol/L HHL; 37°C; pH 8.3
T1 construct: purchased Sigma, USA
T1 sequence (P12822 34-1310): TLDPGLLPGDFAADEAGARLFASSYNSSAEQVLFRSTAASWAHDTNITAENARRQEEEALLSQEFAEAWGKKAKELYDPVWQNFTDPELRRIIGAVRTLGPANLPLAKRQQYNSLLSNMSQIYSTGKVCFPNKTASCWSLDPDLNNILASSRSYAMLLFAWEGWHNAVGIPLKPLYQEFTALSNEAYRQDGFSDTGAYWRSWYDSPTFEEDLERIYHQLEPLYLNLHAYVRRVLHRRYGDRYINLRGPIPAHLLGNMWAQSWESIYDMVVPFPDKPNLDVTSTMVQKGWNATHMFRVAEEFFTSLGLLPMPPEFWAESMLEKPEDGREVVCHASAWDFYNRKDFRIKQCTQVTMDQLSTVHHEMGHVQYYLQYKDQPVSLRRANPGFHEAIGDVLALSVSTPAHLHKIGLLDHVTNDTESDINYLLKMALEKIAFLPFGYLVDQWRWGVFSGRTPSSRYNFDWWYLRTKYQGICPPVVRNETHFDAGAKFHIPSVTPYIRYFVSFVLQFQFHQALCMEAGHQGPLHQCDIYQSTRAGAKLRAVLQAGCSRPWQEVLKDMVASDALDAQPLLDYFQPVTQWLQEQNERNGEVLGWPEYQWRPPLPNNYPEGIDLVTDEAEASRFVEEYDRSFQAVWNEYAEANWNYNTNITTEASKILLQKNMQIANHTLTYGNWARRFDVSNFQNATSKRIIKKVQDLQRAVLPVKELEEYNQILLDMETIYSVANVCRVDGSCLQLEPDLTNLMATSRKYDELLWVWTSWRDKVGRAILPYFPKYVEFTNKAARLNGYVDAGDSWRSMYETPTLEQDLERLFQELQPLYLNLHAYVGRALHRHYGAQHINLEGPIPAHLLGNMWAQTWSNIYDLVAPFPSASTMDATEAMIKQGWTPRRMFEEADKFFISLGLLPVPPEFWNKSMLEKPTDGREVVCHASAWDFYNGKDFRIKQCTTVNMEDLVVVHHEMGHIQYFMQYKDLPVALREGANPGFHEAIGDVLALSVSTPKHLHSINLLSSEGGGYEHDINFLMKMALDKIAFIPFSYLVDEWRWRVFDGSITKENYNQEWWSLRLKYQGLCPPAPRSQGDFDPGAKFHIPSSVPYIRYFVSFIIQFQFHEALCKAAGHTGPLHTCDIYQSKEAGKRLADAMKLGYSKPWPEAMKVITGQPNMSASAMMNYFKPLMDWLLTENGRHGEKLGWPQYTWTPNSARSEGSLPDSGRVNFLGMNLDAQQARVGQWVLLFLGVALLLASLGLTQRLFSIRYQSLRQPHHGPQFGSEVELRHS
Description: The isothermal titration calorimetry (ITC) experiments were carried out using a Nano ITC Low Volume System (TA Instruments-Waters LLC., USA) with a 190 µL cell. All of the experiments were performed at 37°C. ACE was prepared by diluting the stock solution in a buffer of the appropriate pH; the substrate was dissolved in the same buffer as the enzyme. In a control experiment, the ITC cell was filled with 0.024 µmol/L ACE (250 µL), and the ACE solution was titrated with 1.55 mmol/L HHL. The injection volume was […], and the time between two injections was 300 s during which the substrate was completely hydrolyzed. In the inhibition experiment, the ITC cell was filled with 0.024 µmol/L ACE and 0.13 µmol/L TPTQQS (250 µL), and the solution was titrated with 1.55 mmol/L HHL. The titration conditions were the same as those for the control experiment.

In the case of `C[C@H](CS)C(=O)N1CCC[C@H]1C(=O)O` [captopril], the “mode of ACE inhibition (literature)” value (ACE [1]) is listed as “Competitive inhibition”.
In the case of `NCCCC[C@H](N[C@@H](CCc1ccccc1)C(=O)O)C(=O)N1CCC[C@H]1C(=O)O` [lisinopril], the “mode of ACE inhibition (literature)” value (ACE [1]) is listed as “Competitive inhibition”.
For TPTQQS [TPTQQS], the inhibition rate (ACE [2]) was 72.55%, the “mode of ACE inhibition (Lineweaver-Burk)” value (ACE [3]) was “non-competitive inhibitor” and the “affinity of HHL for ACE in the presence of inhibitor, ITC” value (ACE [4]) was “the same as that in the control experiment”. The “mode of ACE inhibition by ITC” value (ACE [4]) was “non-competitive” and the “ACE-inhibitory activity (literature, in words)” value (ACE [1]; isolated from hydrolyzed yeast protein) was “effective ACE-inhibitory peptide; also recorded: highly active”.
For `CCOC(=O)[C@H](CCc1ccccc1)N[C@@H](C)C(=O)N1CCC[C@H]1C(=O)O` [enalapril], the “mode of ACE inhibition (literature)” value (ACE [1]) is given as “Competitive inhibition”.
